# In patent publication US20180325933A1, “FOOD INTAKE, BODY WEIGHT AND GLUCOSE METABOLISM REGULATION BY MODULATION OF P2Y6 RECEPTOR SIGNALING” (priority 2014, published 2018):
# No end group written: not given here.
# Columns and labels:
# [1] = system: wild type mice fed a normal chow diet; experiment: Spontaneous food intake after intracerebroventricular (ICV) administration; assay type: in vivo
# Description: To explore whether UDP plays a direct role on the central regulation of feeding behavior, the effect of intracerebroventricular administration (ICV) of UDP on spontaneous food intake in wild type mice fed with a normal chow diet was measured. Therefore, mice were anesthetized using ketamine/dexmedetomidine. Guide cannulas (26 gauges) were stereotaxically inserted into the lateral ventricle (bregma −0.2 mm, midline 1.0 mm, dorsal surface −2.1 mm). Animals were allowed to recover for one week prior to experiments.
# Prior to the onset of the dark phase, mice acutely received 2 μL ICV administration of UDP (1 μM, 10 μM and 30 μM; Sigma-Aldrich®), MRS 2578 (1 μM, 10 μM; Sigma-Aldrich®), or control solution (NaCl). Spontaneous food intake was measured 2 and 4 hours after ICV administration from pre-weighed portions of food dispensed from the food rack. […] UDP appears to be a strong orexigenic agent as administration of 30 μM UDP induces a 45% increase of spontaneous food intake.
# FIG. 1: (A) Food intake measurement (depicted as food intake to body weight) after intracereborventricular (icv) administration of increasing doses of UDP (1 μM, 10 μM and 30 μM) or vehicle (saline) (n=26vs13vs11vs14). (B) Food intake measurement (depicted as food intake to body weight) after intracereborventricular (icv) administration of P2Y6 antagonist MRS2578 (1 μM and […]) or vehicle (saline) (n=9vs5vs5). Data are presented as mean±SEM. **p<0.01, ***p<0.001.
# [2] = system: cFos immunoreactive cells in the arcuate nucleus of the hypothalamus; experiment: cFos immunoreactivity in the arcuate nucleus after icv administration; assay type: in vivo, C57BL/6 N mice; conditions: icv 30 μM UDP versus vehicle (saline)
# Description: (§1) Having identified a restricted domain of P2Y6 expression in neurons of the ARH, the inventors next investigated whether intracerebroventricular (icv) application of the P2Y6 agonist UDP modulates activation of ARH neurons. To this end, C57BL/6 N control mice were implanted with icy cannulas in the lateral ventricle. Following icy administration of either vehicle (i.e. saline) or 30 μM UDP, brains were processed for immunochemistry with an antibody, which detects the immediate early gene product cFos. […] Since cFos activation can occur either directly in the respective brain area or indirectly via trans-synaptic activation of cells located in projecting areas of directly activated neurons, the inventors investigated the direct effect of UDP on its P2Y6. […] Therefore, the inventors also used pERK as a direct read-out of UDP action and the inventors assessed pERK immunoreactivity in the arcuate nucleus following icy UDP application. […]
# (§2) FIG. 3: Confocal images and quantification comparison of (A) cFos- and (B) pERK-immunoreactive cells in the arcuate nucleus (ARH) of mice after intracerebroventricular administration of vehicle (saline) or 30 μM UDP (ncFos=7vs9; npERK=5vs6). […] (C) Quantification and representative immunoblots of phosphorylated and total ERK in hypothalamic cell lines after incubation with vehicle (saline) or 1 μM UDP (n=11vs12, from 3 independent experiments). […]
# [3] = system: AgRP neurons; experiment: Electrophysiological recordings from AgRP-neurons; assay type: cell-based, AgRPtdTomato mice
# Description: Next the inventors aimed to further directly support the notion, that the P2Y6 agonist UDP can modulate the activity of AgRP-expressing neurons in the ARH. Therefore, the inventors performed electrophysiological recordings from transgenic mice which express red tomato protein under control of the AgRP promoter through Cre-loxP-mediated recombination in (B6; 129S6-Gt(ROSA)26Sortm9(CAG-tdTomato)Hze/J) mice (AgRPtdTomato) (FIGS. 4B and 4C). […] Collectively, these experiments indicate that orexigenic AgRP/NPY-coexpressing neurons in the ARH not only express the UDP receptor P2Y6 but that they are directly activated following UDP application both in vitro and in vivo.
# Having defined that the food intake-promoting activity of UDP is mediated through P2Y6-dependent signaling, the inventors aimed to assess whether also UDP's ability to activate AgRP-neuron firing depends on functional P2Y6 signaling. To this end, the inventors performed electrophysiological recordings from genetically identified AgRP-neurons in AgRPtdTomato mice. […] Thus, not only UDP-induced activation of feeding but also UDP-stimulated activation of AgRP-neurons critically depends on functional P2Y6 signaling.
# FIG. 4: (A) Confocal images and quantitative comparison of ARH cFos immunoreactive cells in NPY-GFP mice after intracerebroventricular administration of vehicle (saline) or 30 μM UDP (n=3 vs. 4). (B) Recording of an AgRPtdTomato neuron showing the increase in action potential frequency in response to the application of 3 μM UDP. […] (C) Identification of a recorded neuron by antibody staining against tdTomato (red) and a biocytin backfill of the recorded neuron (green). (D) Overall responsiveness to 3 μM UDP of the recorded AgRP neuron population (n=11 in total: 4 non-responsive neurons vs 7 responsive). (E) Quantification of action potential (AP) frequency (n=11). Grey circles mark single recordings responding with a significant increase in AP frequency, open circles are non-responsive neurons. All recordings have been conducted in synaptically isolated neurons. Scale bars: A, 50 μm; B, 100 μm and C, […] and […] in the magnifications, respectively. V3, third ventricle. Data are presented as mean±SEM, *p<0.05 (A) and as boxplots generated according to the “Tukey method” (mean: “+” median: horizontal line) (E). *p<0.05.
# FIG. 6: Food intake measurement after intracerebroventricular (icv) administration of (A) vehicle (0.1% DMSO), 1 μM of the P2Y6-specific antagonist MRS […] or co-icv of 30 μM UDP and 1 μM MRS 2578 (n=10vs11vs14vs12), or (B) vehicle (0.1% DMSO), 1 μM MRS 2578, 2 μg ghrelin or co-icv of 2 μg ghrelin and 1 μM MRS 2578 (n=13vs13vs14vs14). (C) Original traces showing the action potential firing during the application of MRS 2578 and during the application of 3 μM UDP in the presence of MRS 2578. (D) Quantification of action potential frequency (AP) (n=12). Data are presented as mean±SEM, *p<0.05 (A-B) and as boxplots generated according to the “Tukey method” (mean: “+”, median: horizontal line) […]. *p<0.05, **p<0.01, ***p<0.001 as compared to vehicle or control.
# [4] = system: AgRPCre mice; experiment: Food intake with pharmacogenetic (hM4D/CNO) inhibition of AgRP cells; assay type: in vivo; conditions: icv 30 μM UDP
# Description: To directly assess, whether the ability of centrally applied UDP to activate feeding depends on AgRP-cell activation, the inventors investigated the effect of centrally administered UDP in mice, which allow for pharmacogenetic inhibition of AgRP cells. To this end, the inventors injected AgRPCre mice bilaterally into the ARH with an AAV, which co-expresses in a Cre-dependent manner the inhibtory DREADD-channel hM4D and mCherry.
# FIG. 5: (A) Representative microphotographs of mCherry immunostainng in control and AgRP^Cre mice injected bilaterally in the arcuate nucleus (ARH) with Cre-dependent rAAV-hSyn-DIO-hM4D(Gi)-mCherry (mCherry, red; DAPI counterstaining, blue). Scale bar: 100 μm. V3, third ventricle. (B) Food intake measurement in virus-injected AgRP^Cre mice or control wild type litter mates. Mice received CNO injections (0.3 mg/kgBW) 15 minutes prior to icy administration of 30 μM UDP or vehicle (Saline) (n=6 vs 8 vs 5 vs 5). Data are presented as mean±SEM, **p<0.01, ***p<0.001 as compare to vehicle.
# [5] = system: NPY-neurons in the ARH; experiment: cFos immunoreactivity of NPY-neurons in NPY-GFP mice after icv administration; assay type: in vivo; conditions: icv 30 μM UDP; 20% following vehicle
# Description: Given that the ventromedial part of the ARH mainly contains AgRP/NPY neurons, the inventors next directly investigated the specific effect of P2Y6/UDP on those neurons. The inventors addressed whether icy application of UDP specifically activates NPY/AgRP-coexpressing neurons in the ARH. The inventors therefore repeated the UDP-induced cFos experiments in mice, which express GFP under control of the neuropeptide (NPY)-promotor (NPY-GFP-mice).
# FIG. 4: (A) Confocal images and quantitative comparison of ARH cFos immunoreactive cells in NPY-GFP mice after intracerebroventricular administration of vehicle (saline) or 30 μM UDP (n=3 vs. 4). (B) Recording of an AgRPtdTomato neuron showing the increase in action potential frequency in response to the application of 3 μM UDP. […] (C) Identification of a recorded neuron by antibody staining against tdTomato (red) and a biocytin backfill of the recorded neuron (green). (D) Overall responsiveness to 3 μM UDP of the recorded AgRP neuron population (n=11 in total: 4 non-responsive neurons vs 7 responsive). (E) Quantification of action potential (AP) frequency (n=11). Grey circles mark single recordings responding with a significant increase in AP frequency, open circles are non-responsive neurons. All recordings have been conducted in synaptically isolated neurons. […]
# [6] = system: pERK-positive cells in the ARH; experiment: pERK immunoreactivity in the arcuate nucleus after icv administration; assay type: in vivo, mice; conditions: icv 30 μM UDP
# Description: as §1, §2
# [7] = system: P2Y6; experiment: Food intake after icv UDP or ghrelin with or without P2Y6 antagonist; assay type: in vivo, mice
# Description: To further elucidate the specific contribution of P2Y6-mediated signaling in UDP-dependent activation of food intake, the inventors took a pharmacological approach.
# Data are presented as mean±SEM, *p<0.05 (A-B) and as boxplots generated according to the “Tukey method” (mean: “+”, median: horizontal line) (F). *p<0.05, **p<0.01, ***p<0.001 as compared to vehicle or control.
# [8] = system: hypothalamic cell line (immortalized AgRP-neurons); experiment: ERK phosphorylation in hypothalamic cell line (immunoblot); assay type: cell-based; conditions: 1 μM UDP
# Description: as §1, §2
# [9] = Serum uridine after intraperitoneal uridine; assay type: in vivo, C57BL/6 N mice; conditions: 50 mg/kgBW uridine i.p.
# Description: (§3) To directly address whether elevation of serum uridine concentrations—as observed in obesity—can lead to increased hypothalamic UDP synthesis, the inventors next injected C57BL/6 N control animals intraperitoneally with uridine.
# (§4) FIG. 9: Effects of intraperitoneal injection of uridine (50 mg/kgBW) or vehicle (saline) in C57B16/N mice on (A) serum uridine (n=4-5 per group) and on (B) hypothalamic UDP contents (n=5 per group) 60 and 90 minutes post-injection as well on (C) food intake (n=15 per group). Data are presented as mean±SEM, *p<0.05, **p<0.01, ***p<0.001.
# [10] = system: C57BL/6 N control animals; experiment: Food intake after intraperitoneal uridine; assay type: in vivo, C57BL/6 N mice; conditions: 50 mg/kgBW uridine i.p., 4 hours after application
# Description: as §3, §4
# [11] = Hypothalamic UDP content after intraperitoneal uridine; assay type: in vivo, C57BL/6 N mice; conditions: 50 mg/kgBW uridine i.p., 90 minutes after application
# Description: as §3, §4
# [12] = system: P2Y1, P2Y2, P2Y4 or P2Y11 receptors; conditions: cited from earlier work
compound,measurement,setting,value
"O=c1ccn([C@@H]2O[C@H](COP(=O)(O)OP(=O)(O)O)[C@@H](O)[C@H]2O)c(=O)[nH]1 [UDP, uridine diphosphate]",increase of spontaneous food intake,[1]; ICV 30 μM UDP,45%
same,spontaneous food intake,"[1]; ICV 2 μL, 1 μM, 10 μM and 30 μM, food intake measured 2 and 4 hours after ICV",increases food intake in a dose-dependent manner
same,increase in cFos immunoreactivity in the arcuate nucleus of the hypothalamus,[2],2.5 fold
same,action potential frequency of AgRP neurons,[3]; 3 μM UDP,increased action potential frequency
same,number of responsive neurons in the recorded AgRP neuron population,"[3]; 3 μM UDP, n=11 in total",7
same,proportion of AgRP-neurons sensitive to UDP,"[3]; electrophysiology, 3 μM UDP",60%
same,UDP's food intake stimulatory effect,"[4]; AAV-injected AgRPCre mice, CNO-mediated inhibition of AgRP-neurons",completely abolished
same,effect of AAV injection and CNO on UDP-induced food intake,"[4]; Cre-negative control animals, CNO 0.3 mg/kgBW",no effect
same,proportion of NPY-neurons exhibiting cFos immunoreactivity,[5],60%
same,number of pERK-positive cells in the ARH,[6],significantly increased the number of pERK-positive cells
same,increase of food intake,[7]; icv UDP alone,≈ 50%
same,ERK-phosphorylation,[8],clearly increased ERK-phosphorylation
O=c1ccn([C@@H]2O[C@H](CO)[C@@H](O)[C@H]2O)c(=O)[nH]1 [uridine],serum uridine concentrations,[9]; 60 minutes post injection,rapid increase of serum uridine concentrations
same,serum uridine concentrations,[9]; 90 minutes after injection,returned to baseline concentrations
same,food intake,[10],increased food intake significantly
same,hypothalamic UDP content,[11],elevation of hypothalamic UDP content
"S=C=Nc1cccc(NC(=S)NCCCCNC(=S)Nc2cccc(N=C=S)c2)c1 [MRS2578, 1,4-Di[3-(3-isothiocyanatophenyl)thioureido]butane]",spontaneous food intake,"[1]; ICV 2 μL MRS 2578 (1 μM, 10 μM)",decreases food intake
same,"selectivity for P2Y6 receptor activity versus activity at P2Y1, P2Y2, P2Y4 or P2Y11 receptors",[12],selectively blocks P2Y6 receptor activity
same,effect on UDP's ability to reduce the membrane potential and activate action potential firing of AgRP-neurons,"[3]; MRS 2578-preincubation, 3 μM UDP",abrogated
same,"action potential frequency of AgRP-neurons, antagonist alone",[3]; MRS 2578 alone,no influence on action potential frequency
same,effect on ghrelin's ability to increase food intake,[7]; co-icv 2 μg ghrelin and 1 μM MRS 2578,no effect
same,effect on UDP-induced increase of food intake,[7]; co-icv 30 μM UDP and 1 μM MRS 2578,completely abrogated
same,"food intake, antagonist alone",[7]; icv 1 μM MRS 2578,does not modulate food intake by itself
"ghrelin: centrally applied ghrelin, used to increase feeding as specificity control (GSSFLSPEHQRVQQRKESKKPPAKLQPR; ends and bridges not checked; UniProt Q9UBU3 24-51, looked up)",feeding,[7]; icv 2 μg ghrelin,increased feeding to comparable extend as observed upon UDP injection
